Test results reported in patent US9867841B2, “Compounds, compositions and methods using E-selectin antagonists for mobilization of hematopoietic cells” (GLYCOMIMETICS, INC., priority 2012, dated 2018).

System: WBC, lymphocytes, monocytes, eosinophils, and neutrophils in circulation
Test: Mobilization of blood cells in CD-1 mice (Example 5, FIG. 5)
Format: in vivo
Settings: AMD3100 dosed at 3 mg/kg
Protocol: Blood was collected from the animals at 2, 3, and 6 hours post dosing and analyzed for levels of total white blood cells (WBC) (Figure SA), neutrophils (FIG. 5B), eosinophils (FIG. 5C), lymphocytes (FIG. 5D), monocytes (FIG. 5E).
Blood was collected from the animals at 2, 3, and 6 hours post dosing and analyzed for levels of blood cells (WBC, lymphocytes, monocytes, eosinophils, and neutrophils) by standard CBC differential analyses methods.

c1cc(CN2CCCNCCNCCCNCC2)ccc1CN1CCCNCCNCCCNCC1 [AMD3100]
level and timing of WBC mobilization compared with Compound 25: generally equivalent to that elicited by Compound 25
